Here are results for 2 molecules from patent EP4745138A1, “THIO-GLUTARIMIDO ISOINDOLINONE DERIVATIVE, BIFUNCTIONAL PROTEIN DEGRADER CONTAINING SAME, AND USES THEREOF” (Gluetacs Therapeutics (Shanghai) Co., Ltd., priority 2023, dated 2025).

For assay [1], the target named is T1, human Cereblon WT GST-tagged protein (Homo sapiens, UniProt Q96SW2).
T1 construct: purchased CISBIO 64BDCRBNPEH
The assay can be described thus: CRBN-binding affinity, HTRF (CEREBLON BINDING kit). The following applies: for inhibition at 0.5 µM: read-out: Inhibition Rate at 0.5 µM (%); for inhibition at 2 µM: read-out: Inhibition Rate at 2 µM (%). In short, it runs like this:
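Compounds are serially diluted in diluent #9 (1X) and added at final 2 µM and 0.5 µM. GST-tagged wild-type Cereblon is added next, followed by premixed thalidomide-red reagent and anti-GST Eu antibody, and HTRF signal is measured.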
For orientation: In TR-FRET formats the signal depends on donor and acceptor labels being close together.

A further assay concerns MM.1S. The assay can be described thus: Tumor cell proliferation inhibition (CellTiter-Meiluncell Luminescent Cell Viability Assay). The format is cell-based. The following applies: Homo sapiens, MM1.S, MM.1S, 96 hours. In short, it runs like this: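 Following overnight seeding, tumor cells received serial compound dilutions to final levels that included 10 nM and 500 nM. Viability was assessed by luminescence at the end of the specified exposure time. Cultures were kept at 37°C with 5% CO2.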

Another assay has as its target T2, BRG1 (Homo sapiens, UniProt P51532).
T2 construct: endogenous in cells; host or cells: Molt-4
Briefly: Western blot, target protein degradation in Molt-4 Cell. The format is cell-based. The following applies: substrate protein remaining %, treated at 500 nM and 50 nM, 24 hours. Here is the method: (§1) Conventional Western blot assay was performed to evaluate the effects of the compounds of the present disclosure on the expression of target proteins in cells.
(§2) (1) Cell Seeding and Protein Harvesting: The selected cells were processed according to the cell seeding procedure and protein harvesting procedure in Table II-2. Table II-2 Cell Seeding and Protein Harvesting Procedures
(§3) (2) To the collected supernatant, 5X SDS sample loading buffer was added, followed by denaturation at 95°C for 5 minutes. The denatured samples were then separated by SDS-PAGE electrophoresis on a polyacrylamide gel. Proteins were transferred to a nitrocellulose membrane (0.45 µm NC membrane), blocked with blocking buffer at room temperature for 1 hour, and subjected to antibody incubation and development procedures according to the antibody manufacturer's instructions (Cell Signaling Technology).
(§4) Half-Maximal Degradation Concentration value (the drug concentration required for degrading proteins by 50%, abbreviated as DC50) reads method: comparing the grayscale values of Western blot bands from drug-treated samples with those from blank DMSO-treated controls, and identifying the drug concentration range at which the grayscale value is half that of the DMSO-treated control bands.
(§5) DC50 values can be calculated using ImageJ software to measure grayscale values of Western blot bands from drug-treated samples. […]
On the technique in general: In western blotting, separated proteins are transferred to a membrane and probed.

The next assay has as its target T3, BRM (Homo sapiens, UniProt P51531).
T3 construct: endogenous in cells; host or cells: Molt-4
Described as above. The following applies: substrate protein remaining %, treated at 500 nM and 50 nM, 24 hours. It counts as cell-based. As for the experimental part: as §1, §2, §3, §4, §5

The next assay deals with Jurkat. The assay can be described thus: Tumor cell proliferation inhibition (CellTiter-Meiluncell Luminescent Cell Viability Assay). The following applies: Homo sapiens, 96 hours, Table I-5, designed based on the IRAK4 inhibitors, read-out: Inhibitory activity (IC50, nM) Jurkat. Here is the method: The tumor cells used herein were cultured in a cell culture medium listed in table 3 at 37°C in an incubator with 5% CO2. Prior to experimentation, all cell lines used were correctly identified by STR profiling, and tested negative for mycoplasma contamination using a mycoplasma detection kit through routine screenings. Table 3. Tumor cells and cell culture medium used in the present disclosure
The IC50 values of the compounds of the present disclosure (including the compounds in Table 1, Table 2, and Examples) were determined using the CellTiter-Meiluncell Luminescent Cell Viability Assay Kit from Dalian Meilun Biotech Co., Ltd. The detailed procedure is as follows: Tumor cells were seeded in 96-well cell culture plates at the densities specified in Table 4. On the following day, the test compounds of the present disclosure were subjected to serial dilution. […] Subsequently, 0.5 µL of the test compound dilution was transferred into the 96-well plate containing the cells, with each well containing 100 µL of cell culture medium. […] Into the 96-well plate, the diluted test compounds and corresponding detection reagents were added, resulting in final test compound concentrations of 500 nM and 10 nM, respectively. The experimental procedure is described below using the diluted 2 µM test compound as an example.
0.5 µL of the aforementioned diluted compound of the present disclosure (including the compounds in Table 1, Table 2, and Examples) was added to the seeded cells in 100 µL of medium, yielding a final test compound concentration of 10 nM. After the cells were treated with the compounds of the present disclosure for a specified period, the cell viability assay reagent was added to the culture medium according to the kit's instructions to determine cell viability. […] All controls were treated using the same procedure as the compounds of the present disclosure. […] Seeding protocol and treatment time for tumor cells

T1 sequence (Q96SW2 whole entry): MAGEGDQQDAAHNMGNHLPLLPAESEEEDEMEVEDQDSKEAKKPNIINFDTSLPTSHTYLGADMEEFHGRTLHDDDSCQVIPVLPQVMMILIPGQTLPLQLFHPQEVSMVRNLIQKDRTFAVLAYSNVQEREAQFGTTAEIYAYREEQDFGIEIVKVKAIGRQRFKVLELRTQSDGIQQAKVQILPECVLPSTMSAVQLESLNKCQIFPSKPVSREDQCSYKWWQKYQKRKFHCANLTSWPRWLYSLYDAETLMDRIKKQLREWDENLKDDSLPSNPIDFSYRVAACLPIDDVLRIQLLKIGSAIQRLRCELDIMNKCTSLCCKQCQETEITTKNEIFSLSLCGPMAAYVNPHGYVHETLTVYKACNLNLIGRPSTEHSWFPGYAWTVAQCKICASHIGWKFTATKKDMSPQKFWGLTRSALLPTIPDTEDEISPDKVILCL
T2 sequence (P51532 whole entry): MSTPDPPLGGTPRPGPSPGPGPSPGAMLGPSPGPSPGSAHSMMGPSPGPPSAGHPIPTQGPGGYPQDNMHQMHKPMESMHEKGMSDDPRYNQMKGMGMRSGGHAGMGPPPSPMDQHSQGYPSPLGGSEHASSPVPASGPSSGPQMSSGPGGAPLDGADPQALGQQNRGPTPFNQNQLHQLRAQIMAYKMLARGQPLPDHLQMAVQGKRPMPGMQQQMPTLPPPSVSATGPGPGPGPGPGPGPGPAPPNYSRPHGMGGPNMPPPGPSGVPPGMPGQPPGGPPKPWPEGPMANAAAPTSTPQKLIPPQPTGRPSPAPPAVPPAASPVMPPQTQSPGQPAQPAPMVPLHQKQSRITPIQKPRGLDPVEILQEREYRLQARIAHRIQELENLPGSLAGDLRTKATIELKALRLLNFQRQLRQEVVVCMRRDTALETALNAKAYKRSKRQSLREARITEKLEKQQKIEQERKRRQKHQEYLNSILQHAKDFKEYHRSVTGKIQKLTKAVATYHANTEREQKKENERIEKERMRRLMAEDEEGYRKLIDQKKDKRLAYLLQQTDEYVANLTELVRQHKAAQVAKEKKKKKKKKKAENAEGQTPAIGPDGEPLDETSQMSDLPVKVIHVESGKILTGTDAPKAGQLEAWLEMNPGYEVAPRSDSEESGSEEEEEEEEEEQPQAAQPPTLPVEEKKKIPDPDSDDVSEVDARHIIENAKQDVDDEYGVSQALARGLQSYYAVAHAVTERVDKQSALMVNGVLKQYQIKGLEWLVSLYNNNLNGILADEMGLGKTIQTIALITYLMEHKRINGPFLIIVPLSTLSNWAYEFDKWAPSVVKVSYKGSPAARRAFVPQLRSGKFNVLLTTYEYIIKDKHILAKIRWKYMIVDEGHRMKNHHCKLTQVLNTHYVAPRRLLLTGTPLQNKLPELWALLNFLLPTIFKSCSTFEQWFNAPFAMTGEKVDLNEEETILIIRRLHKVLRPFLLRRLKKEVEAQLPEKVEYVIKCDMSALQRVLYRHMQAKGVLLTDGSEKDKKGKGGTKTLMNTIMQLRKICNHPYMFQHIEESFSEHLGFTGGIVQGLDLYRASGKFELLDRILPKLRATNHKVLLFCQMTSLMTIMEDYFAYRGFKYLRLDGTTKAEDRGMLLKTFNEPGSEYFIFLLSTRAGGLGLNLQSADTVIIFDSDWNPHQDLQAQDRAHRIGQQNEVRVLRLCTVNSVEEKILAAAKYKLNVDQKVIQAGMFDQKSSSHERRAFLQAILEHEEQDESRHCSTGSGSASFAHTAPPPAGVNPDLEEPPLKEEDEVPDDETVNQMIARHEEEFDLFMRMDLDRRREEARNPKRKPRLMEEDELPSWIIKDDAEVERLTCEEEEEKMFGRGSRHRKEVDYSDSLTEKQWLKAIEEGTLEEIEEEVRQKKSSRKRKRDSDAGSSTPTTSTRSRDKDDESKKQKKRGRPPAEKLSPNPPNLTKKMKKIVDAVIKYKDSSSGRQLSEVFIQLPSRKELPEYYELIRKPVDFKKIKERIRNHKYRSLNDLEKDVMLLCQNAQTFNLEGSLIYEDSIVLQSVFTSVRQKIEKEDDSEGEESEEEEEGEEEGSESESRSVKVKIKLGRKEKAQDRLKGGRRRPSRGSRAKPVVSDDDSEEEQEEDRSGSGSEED
T3 sequence (P51531 whole entry): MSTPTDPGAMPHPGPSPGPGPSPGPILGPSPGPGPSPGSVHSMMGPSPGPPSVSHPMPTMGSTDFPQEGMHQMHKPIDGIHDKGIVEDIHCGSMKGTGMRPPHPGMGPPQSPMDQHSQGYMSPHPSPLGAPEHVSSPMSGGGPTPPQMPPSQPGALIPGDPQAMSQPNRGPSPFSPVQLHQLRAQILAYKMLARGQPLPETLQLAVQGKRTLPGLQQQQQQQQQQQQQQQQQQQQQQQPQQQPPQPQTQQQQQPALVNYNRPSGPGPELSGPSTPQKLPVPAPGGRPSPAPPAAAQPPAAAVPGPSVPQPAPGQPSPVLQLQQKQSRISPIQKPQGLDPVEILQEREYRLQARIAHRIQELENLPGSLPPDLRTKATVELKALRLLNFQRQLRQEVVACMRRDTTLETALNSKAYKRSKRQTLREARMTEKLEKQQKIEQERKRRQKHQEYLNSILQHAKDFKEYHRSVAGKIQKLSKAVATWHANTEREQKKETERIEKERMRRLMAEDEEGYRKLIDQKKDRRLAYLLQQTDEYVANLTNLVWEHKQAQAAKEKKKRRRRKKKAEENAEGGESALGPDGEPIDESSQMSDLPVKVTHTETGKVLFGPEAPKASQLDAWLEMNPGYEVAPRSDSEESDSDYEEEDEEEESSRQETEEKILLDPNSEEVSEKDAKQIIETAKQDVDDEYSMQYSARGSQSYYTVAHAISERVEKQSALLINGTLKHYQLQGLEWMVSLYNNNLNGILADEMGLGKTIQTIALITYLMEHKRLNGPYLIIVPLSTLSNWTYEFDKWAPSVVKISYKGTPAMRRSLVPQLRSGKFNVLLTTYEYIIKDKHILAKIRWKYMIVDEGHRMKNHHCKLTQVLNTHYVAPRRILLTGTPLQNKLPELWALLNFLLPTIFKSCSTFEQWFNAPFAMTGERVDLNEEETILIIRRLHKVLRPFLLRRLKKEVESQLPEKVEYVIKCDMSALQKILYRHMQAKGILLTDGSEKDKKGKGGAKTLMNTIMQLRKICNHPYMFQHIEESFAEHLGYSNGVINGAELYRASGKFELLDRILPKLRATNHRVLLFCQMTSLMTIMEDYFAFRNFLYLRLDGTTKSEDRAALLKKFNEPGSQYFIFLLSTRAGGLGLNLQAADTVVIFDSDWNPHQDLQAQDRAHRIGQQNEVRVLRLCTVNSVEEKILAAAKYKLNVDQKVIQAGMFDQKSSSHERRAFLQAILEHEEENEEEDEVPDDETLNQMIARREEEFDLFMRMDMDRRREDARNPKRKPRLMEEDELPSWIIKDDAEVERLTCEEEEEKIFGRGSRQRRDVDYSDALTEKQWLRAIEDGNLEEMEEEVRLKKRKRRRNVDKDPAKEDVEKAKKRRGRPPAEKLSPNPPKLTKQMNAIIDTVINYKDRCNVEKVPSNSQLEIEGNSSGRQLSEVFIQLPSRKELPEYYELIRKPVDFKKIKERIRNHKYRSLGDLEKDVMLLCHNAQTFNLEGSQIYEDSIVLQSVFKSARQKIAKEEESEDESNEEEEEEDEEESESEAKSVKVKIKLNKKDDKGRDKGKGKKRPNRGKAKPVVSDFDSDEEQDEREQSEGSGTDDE

As a reminder, the inhibition is the drop in the measured response relative to a control, in per cent. `Nc1nnc(-c2ccccc2O)cc1N1CCN(Cc2ccc3c(c2)C(=S)N(C2CCC(=O)NC2=O)C3)CC1` (stereo not shown) [GT-08787, 3-(6-((4-(3-amino-6-(2-hydroxyphenyl)pyridazin-4-yl)piperazin-1-yl)methyl)-1-thioxoisoindolin-2-yl)piperidine-2,6-dione]: in assay [1], the inhibition at 0.5 µM is 60 to 80% and the inhibition at 2 µM fell in the range of 80 to 100%. Moreover, in the assay with MM.1S (10 nM, Table I-8, SMARCA2/4 inhibitors, read-out: Inhibition Rate at 10 nM (%)), the inhibition at 0.01 µM is 30 to 40%. Further, the inhibition at 0.5 µM in the assay with MM.1S (500 nM, Table I-8, SMARCA2/4 inhibitors, read-out: Inhibition Rate at 500 nM (%)) was in the range of 40 to 50%. In addition, at BRG1, the “Degradation of substrate protein BRG1” value was “A (0% ≤ substrate protein remaining % ≤ 80%)”. Further, on BRM, the “Degradation of substrate protein BRM” value is “A (0% ≤ substrate protein remaining % ≤ 80%)”.

As usually defined, the IC50 is the concentration that gives 50% inhibition. For `COc1cc2nn(C3CCN(Cc4cccc5c4CN(C4CCC(=O)NC4=O)C5=S)CC3)cc2cc1NC(=O)c1cccc(C(F)(F)F)n1` (stereo not shown) [GT-04950, N-(2-(1-((2-(2,6-dioxopiperidin-3-yl)-1-thioxoisoindolin-4-yl)methyl)piperidin-4-yl)-6-methoxy-2H-indazol-5-yl)-6-(trifluoromethyl)picolinamide], the inhibition at 0.5 µM in assay [1] is 40 to 53%. Further, the inhibition at 2 µM in assay [1] is 60 to 80%. The IC50 fell in the range of 100 to 500 nM with MM.1S (Table I-5, designed based on the IRAK4 inhibitors, read-out: Inhibitory activity (IC50, nM) MM.1S) and 500 to 1000 nM in the assay on Jurkat.
